Data taken from US11970494B2, “6-heteroaryloxy benzimidazoles and azabenzimidazoles as JAK2 inhibitors” (Ajax Therapeutics, Inc., priority 2021, dated 2024).

Biological target: T1, JAK2 (JH1 domain-catalytic, Y1007F,Y1008F) kinase (Homo sapiens, UniProt O60674, Y1007F/Y1008F)
T1 construct: made in house; host or cells: transiently transfected HEK293 cells
Assay: JAK2 Binding Assay (JAK2 JH1 Domain Binding Assay)
Details: not given

T1 sequence (O60674 849-1124 Y1007F/Y1008F limits assumed): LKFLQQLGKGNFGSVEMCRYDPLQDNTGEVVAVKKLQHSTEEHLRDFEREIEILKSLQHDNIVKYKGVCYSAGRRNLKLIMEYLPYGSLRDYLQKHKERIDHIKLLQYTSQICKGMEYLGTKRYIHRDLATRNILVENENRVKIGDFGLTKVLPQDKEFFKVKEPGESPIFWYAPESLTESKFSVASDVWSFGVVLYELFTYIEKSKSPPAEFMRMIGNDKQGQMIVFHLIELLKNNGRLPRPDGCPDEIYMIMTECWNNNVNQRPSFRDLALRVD

Compound | Kd [nM]
Cn1cc(C(F)(F)F)cc(Nc2nc3ncc(Oc4ccnc(NC(=O)CF)c4)c(Cl)c3n2C)c1=O [Example I-76, N-(4-((7-chloro-1-methyl-2-((1-methyl-2-oxo-5-(trifluoromethyl)-1,2-dihydropyridin-3-yl)amino)-1H-imidazo[4,5-b]pyridin-6-yl)oxy)pyridin-2-yl)-2-fluoroacetamide] | < 10
Cn1cc(C(F)(F)F)cc(Nc2nc3ncc(Oc4ccnc(NC(=O)CF)c4)c(C#N)c3n2C)c1=O [Example I-84, N-(4-((7-cyano-1-methyl-2-((1-methyl-2-oxo-5-(trifluoromethyl)-1,2-dihydropyridin-3-yl)amino)-1H-imidazo[4,5-b]pyridin-6-yl)oxy)pyridin-2-yl)-2-fluoroacetamide] | < 10

Same assay, conditions: JAK2 JH1 domain binding, qPCR detection; read-out: JAK2 Kd

Kd [nM] | Compound
10 to 50 | CN(C)C(=O)Nc1cc(Oc2cnc3nc(Nc4cc5n(n4)CCN5C(C)(C)C)n(C)c3c2C#N)ccn1 [Example I-70, 3-(4-((2-((1-(tert-butyl)-2,3-dihydro-1H-imidazo[1,2-b]pyrazol-6-yl)amino)-7-cyano-1-methyl-1H-imidazo[4,5-b]pyridin-6-yl)oxy)pyridin-2-yl)-1,1-dimethylurea]
< 10 | COC(=O)Nc1cc(Oc2cnc3nc(Nc4cc5n(n4)CCN5C(C)(C)C)n(C)c3c2C#N)ccn1 [Example I-71, methyl(4-((2-((1-(tert-butyl)-2,3-dihydro-1H-imidazo[1,2-b]pyrazol-6-yl)amino)-7-cyano-1-methyl-1H-imidazo[4,5-b]pyridin-6-yl)oxy)pyridin-2-yl)carbamate]
< 10 | CNC(=O)Nc1cc(Oc2cnc3nc(Nc4cc5n(n4)CCN5C(C)(C)C)n(C)c3c2C#N)ccn1 [Example I-72, 1-(4-((2-((1-(tert-butyl)-2,3-dihydro-1H-imidazo[1,2-b]pyrazol-6-yl)amino)-7-cyano-1-methyl-1H-imidazo[4,5-b]pyridin-6-yl)oxy)pyridin-2-yl)-3-methylurea]
< 10 | Cn1cc(C(F)(F)F)cc(Nc2nc3ncc(Oc4ccnc(NC(=O)C[C@H]5CCCCO5)c4)c(C#N)c3n2C)c1=O [Example I-74-b]
< 10 | CC(=O)Nc1cc(Oc2cnc3nc(Nc4cc(C(F)(F)F)cn(C)c4=O)n(C)c3c2)ccn1 [Example I-77, N-(4-((1-methyl-2-((1-methyl-2-oxo-5-(trifluoromethyl)-1,2-dihydropyridin-3-yl)amino)-1H-imidazo[4,5-b]pyridin-6-yl)oxy)pyridin-2-yl)acetamide]
< 10 | COc1c(Oc2ccnc(NC(C)=O)c2)cnc2nc(Nc3cc(C(F)(F)F)cn(CCO)c3=O)n(C)c12 [Example I-80, N-(4-((2-((1-(2-hydroxyethyl)-2-oxo-5-(trifluoromethyl)-1,2-dihydropyridin-3-yl)amino)-7-methoxy-1-methyl-1H-imidazo[4,5-b]pyridin-6-yl)oxy)pyridin-2-yl)acetamide]
< 10 | CC(=O)Nc1cc(Oc2cnc3nc(Nc4cc(C(F)(F)F)cn(CCO)c4=O)n(C)c3c2C#N)ccn1 [Example I-81]
< 10 | [2H]C([2H])([2H])n1cc(C(F)(F)F)cc(Nc2nc3ncc(Oc4ccnc(NC(C)=O)c4)c(Cl)c3n2C)c1=O [Example I-82, N-(4-((7-chloro-1-methyl-2-((1-(methyl-d3)-2-oxo-5-(trifluoromethyl)-1,2-dihydropyridin-3-yl)amino)-1H-imidazo[4,5-b]pyridin-6-yl)oxy)pyridin-2-yl)acetamide]
< 10 | [2H]C([2H])([2H])n1cc(C(F)(F)F)cc(Nc2nc3ncc(Oc4ccnc(NC(C)=O)c4)c(C#N)c3n2C)c1=O [Example I-83, N-(4-((7-cyano-1-methyl-2-((1-(methyl-d3)-2-oxo-5-(trifluoromethyl)-1,2-dihydropyridin-3-yl)amino)-1H-imidazo[4,5-b]pyridin-6-yl)oxy)pyridin-2-yl)acetamide]
< 10 | COCCNCC(=O)Nc1cc(Oc2cnc3nc(Nc4cc(C(F)(F)F)cn(C)c4=O)n(C)c3c2Cl)ccn1 [Example I-85, N-(4-((7-chloro-1-methyl-2-((1-methyl-2-oxo-5-(trifluoromethyl)-1,2-dihydropyridin-3-yl)amino)-1H-imidazo[4,5-b]pyridin-6-yl)oxy)pyridin-2-yl)-2-((2-methoxyethyl)amino)acetamide]
< 10 | Cn1cc(C(F)(F)F)cc(Nc2nc3ncc(Oc4ccnc(NC(=O)CO)c4)c(Cl)c3n2C)c1=O [Example I-86, N-(4-((7-chloro-1-methyl-2-((1-methyl-2-oxo-5-(trifluoromethyl)-1,2-dihydropyridin-3-yl)amino)-1H-imidazo[4,5-b]pyridin-6-yl)oxy)pyridin-2-yl)hydroxyacetamide]
< 10 | Cn1cc(C(F)(F)F)cc(Nc2nc3ncc(Oc4ccnc(NC(=O)CNCCF)c4)c(Cl)c3n2C)c1=O [Example I-87, N-(4-((7-chloro-1-methyl-2-((1-methyl-2-oxo-5-(trifluoromethyl)-1,2-dihydropyridin-3-yl)amino)-1H-imidazo[4,5-b]pyridin-6-yl)oxy)pyridin-2-yl)-2-((2-fluoroethyl)amino)acetamide]
< 10 | Cn1c(Nc2cc(C(F)(F)F)cn(CCO)c2=O)nc2ncc(Oc3ccnc(NC(=O)C4CC4)c3)c(C#N)c21 [Example I-89, N-(4-((7-cyano-2-((1-(2-hydroxyethyl)-2-oxo-5-(trifluoromethyl)-1,2-dihydropyridin-3-yl)amino)-1-methyl-1H-imidazo[4,5-b]pyridin-6-yl)oxy)pyridin-2-yl)cyclopropanecarboxamide]
< 10 | CC(=O)Nc1cc(Oc2cnc3nc(Nc4cc5n(n4)CCCC5(F)F)n(C)c3c2Cl)ccn1 [Example I-92, N-(4-((7-chloro-2-((4,4-difluoro-4,5,6,7-tetrahydropyrazolo[1,5-a]pyridin-2-yl)amino)-1-methyl-1H-imidazo[4,5-b]pyridin-6-yl)oxy)pyridin-2-yl)acetamide]
< 10 | CC(=O)Nc1cc(Oc2cnc3nc(Nc4cc5n(n4)CCCC5(F)F)n(C)c3c2C#N)ccn1 [Example I-93, N-(4-((7-cyano-2-((4,4-difluoro-4,5,6,7-tetrahydropyrazolo[1,5-a]pyridin-2-yl)amino)-1-methyl-1H-imidazo[4,5-b]pyridin-6-yl)oxy)pyridin-2-yl)acetamide]

Further lines, the molecule ahead of its results:

Compound | Kd [nM]
CNC(=O)Nc1cc(Oc2cnc3nc(Nc4cc5n(n4)CCC54CCC4)n(C)c3c2C#N)ccn1 [Example I-58, 1-(4-((7-cyano-2-((5′,6′-dihydrospiro[cyclobutane-1,4′-pyrrolo[1,2-b]pyrazol]-2′-yl)amino)-1-methyl-1H-imidazo[4,5-b]pyridin-6-yl)oxy)pyridin-2-yl)-3-methylurea] | < 10
CO[C@H]1CCN(C(=O)Nc2cc(Oc3cnc4nc(Nc5cc6n(n5)CCC65CCC5)n(C)c4c3C#N)ccn2)C1 [Example I-59, (S)-N-(4-((7-cyano-2-((5′,6′-dihydrospiro[cyclobutane-1,4′-pyrrolo[1,2-b]pyrazol]-2′-yl)amino)-1-methyl-1H-imidazo[4,5-b]pyridin-6-yl)oxy)pyridin-2-yl)-3-methoxypyrrolidine-1-carboxamide] | < 10
COC(=O)Nc1cc(Oc2cnc3nc(Nc4cc5n(n4)CCCC54CC4)n(C)c3c2C#N)ccn1 [Example I-63, methyl (4-((7-cyano-2-((6′,7′-dihydro-5′H-spiro[cyclopropane-1,4′-pyrazolo[1,5-a]pyridin]-2′-yl)amino)-1-methyl-1H-imidazo[4,5-b]pyridin-6-yl)oxy)pyridin-2-yl)carbamate] | < 10
CNC(=O)Nc1cc(Oc2cnc3nc(Nc4cc5n(n4)CCCC54CC4)n(C)c3c2C#N)ccn1 [Example I-64, 1-(4-((7-cyano-2-((6′,7′-dihydro-5′H-spiro[cyclopropane-1,4′-pyrazolo[1,5-a]pyridin]-2′-yl)amino)-1-methyl-1H-imidazo[4,5-b]pyridin-6-yl)oxy)pyridin-2-yl)-3-methylurea] | < 10
CN(C)C(=O)Nc1cc(Oc2cnc3nc(Nc4cc5n(n4)CCCC54CC4)n(C)c3c2C#N)ccn1 [Example I-65, 3-(4-((7-cyano-2-((6′,7′-dihydro-5′H-spiro[cyclopropane-1,4′-pyrazolo[1,5-a]pyridin]-2′-yl)amino)-1-methyl-1H-imidazo[4,5-b]pyridin-6-yl)oxy)pyridin-2-yl)-1,1-dimethylurea] | < 10
Cn1c(Nc2cc3n(n2)CCC32CCC2)nc2ncc(Oc3ccnc(NC(=O)OC4COC4)c3)c(C#N)c21 [Example I-66, oxetan-3-yl (4-((7-cyano-2-((5′,6′-dihydrospiro[cyclobutane-1,4′-pyrrolo[1,2-b]pyrazol]-2′-yl)amino)-1-methyl-1H-imidazo[4,5-b]pyridin-6-yl)oxy)pyridin-2-yl)carbamate] | < 10
CN(C)C(=O)Nc1cc(Oc2cnc3nc(Nc4cc5n(n4)CCOCC5(C)C)n(C)c3c2C#N)ccn1 [Example I-67, 3-(4-((7-cyano-2-((4,4-dimethyl-4,5,7,8-tetrahydropyrazolo[1,5-d][1,4]oxazepinyl)amino)-1-methyl-1H-imidazo[4,5-b]pyridin-6-yl)oxy)pyridin-2-yl)-1,1-dimethylurea] | < 10
COC(=O)Nc1cc(Oc2cnc3nc(Nc4cc5n(n4)CCOCC5(C)C)n(C)c3c2C#N)ccn1 [Example I-68, methyl(4-((7-cyano-2-((4,4-dimethyl-4,5,7,8-tetrahydropyrazolo[1,5-d][1,4]oxazepin-2-yl)amino)-1-methyl-1H-imidazo[4,5-b]pyridin-6-yl)oxy)pyridin-2-yl)carbamate] | < 10
CNC(=O)Nc1cc(Oc2cnc3nc(Nc4cc5n(n4)CCOCC5(C)C)n(C)c3c2C#N)ccn1 [Example I-69, 1-(4-((7-cyano-2-((4,4-dimethyl-4,5,7,8-tetrahydropyrazolo[1,5-d][1,4]oxazepin-2-yl)amino)-1-methyl-1H-imidazo[4,5-b]pyridin-6-yl)oxy)pyridin-2-yl)-3-methylurea] | < 10
CN(C)C(=O)Nc1cc(Oc2cnc3nc(Nc4cc5n(n4)CC(C)(C)OC5)n(C)c3c2C#N)ccn1 [Example I-73, 3-(4-((7-cyano-2-((6,6-dimethyl-6,7-dihydro-4H-pyrazolo[5,1-c][1,4]oxazin-2-yl)amino)-1-methyl-1H-imidazo[4,5-b]pyridin-6-yl)oxy)pyridin-2-yl)-1,1-dimethylurea] | 10 to 50
